Test systems include ACHN renal; HCT-15 colon; HL-60(TB) leukemia; KM12 colon; M14 melanoma; NCI-H460 lung; OVCAR-5 ovarian; SK-MEL-28 melanoma; SN12C renal; SW-620 colon.
Holding throughout (assay): DTP human tumour cell line panel, 48 h

Data on ten compounds can be found in PubChem BioAssay (NCI).

SMILES strings stand for the structures.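 Growth conditions: 96-well plates. Treatment: test compound, 48 hours, 5 concentrations. Analysis: linear interpolation between bracketing concentrations; unreached endpoints set to highest concentration. GI50 marks 50% less growth. TGI: total growth inhibition.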

Turning to `COc1ccc(Cn2cc3c(c2)-c2oncc2CC3)cc1`, the GI50 – broadly, the concentration giving 50% growth inhibition – in the test with ACHN renal is 11.6 µM; in the test on HCT-15 colon, 4.33 µM; with HL-60(TB) leukemia, 1.72 µM; with KM12 colon it was 2.62 µM; in the test with M14 melanoma, 3.12 µM; in the test with NCI-H460 lung it was 3.47 µM. The GI50 with OVCAR-5 ovarian was 8.6 µM; in the test on SK-MEL-28 melanoma it was 4.08 µM; in the test on SN12C renal, 10.1 µM; with SW-620 colon it was 2.8 µM. For the same compound, the TGI (usually the concentration giving total growth inhibition) with ACHN renal was more than 100 µM; with HCT-15 colon, more than 70.6 µM; in the test on HL-60(TB) leukemia it was 8.26 µM; in the test with KM12 colon, 20.7 µM; with M14 melanoma, 61.7 µM; in the test on NCI-H460 lung it was 16.5 µM. Moreover, the TGI in the test with OVCAR-5 ovarian is more than 100 µM; in the test on SK-MEL-28 melanoma it was more than 52.8 µM; in the test with SN12C renal it was more than 100 µM; in the test on SW-620 colon, more than 100 µM.

`O=C1NC(=S)S/C1=C(/C=C(\CC(=O)c1ccccc1)c1ccc(Cl)cc1)c1ccccc1`: the GI50 with ACHN renal is 25.5 µM; with HCT-15 colon it was 15.8 µM; with HL-60(TB) leukemia, 21.7 µM; in the test with KM12 colon, 28.2 µM; in the test with M14 melanoma, 24.7 µM; with NCI-H460 lung, 19.9 µM. For the same compound, the GI50 is 65.4 µM in the test with OVCAR-5 ovarian, 61.9 µM in the test with SK-MEL-28 melanoma, 25.3 µM with SN12C renal and 42.9 µM with SW-620 colon. Also, the total growth inhibition concentration (TGI) in the test with ACHN renal was 61.3 µM; in the test with HCT-15 colon it was 39.4 µM; in the test on HL-60(TB) leukemia, 55.2 µM; in the test with KM12 colon, more than 100 µM; in the test on M14 melanoma it was 63.4 µM; in the test with NCI-H460 lung it was 45.7 µM. In addition, the TGI with OVCAR-5 ovarian was more than 100 µM; with SK-MEL-28 melanoma, more than 100 µM; with SN12C renal, 56.3 µM; with SW-620 colon it was more than 100 µM.

As for `NC(=S)NNc1c([N+](=O)[O-])cnn(-c2ccccc2)c1=O`, the TGI in the test on ACHN renal was 32.7 µM; with HCT-15 colon it was 32 µM; in the test with HL-60(TB) leukemia it was 19.3 µM; with KM12 colon, 28.2 µM; in the test with M14 melanoma, 28.4 µM; in the test with NCI-H460 lung it was 34 µM. Further, the TGI with OVCAR-5 ovarian amounted to 32.4 µM; in the test with SK-MEL-28 melanoma it was 30.8 µM; with SN12C renal it was 31.4 µM; in the test on SW-620 colon, 26.4 µM.

On to `CS(=O)(=O)CSCSSCS(C)(=O)=O`, for which the TGI was more than 100 µM with ACHN renal; more than 84.8 µM in the test on HCT-15 colon; 55.7 µM in the test with HL-60(TB) leukemia; more than 100 µM with KM12 colon; 40.8 µM with M14 melanoma; more than 84.8 µM in the test on NCI-H460 lung. The TGI with OVCAR-5 ovarian was more than 93.8 µM; with SK-MEL-28 melanoma it was 66.4 µM; in the test on SN12C renal it was more than 93.3 µM; in the test with SW-620 colon it was 34.3 µM.

With `CC(=O)OCC(OC(C)=O)C(OC(C)=O)C(OC(C)=O)C(=O)CNn1c(-c2ccccc2Cl)nc2ccccc2c1=O` (stereo not given), the total growth inhibition concentration (TGI) in the test on ACHN renal, with HCT-15 colon, in the test with HL-60(TB) leukemia, with KM12 colon, with M14 melanoma and with NCI-H460 lung was more than 100 µM in each case. Also, the TGI with OVCAR-5 ovarian, in the test on SK-MEL-28 melanoma, with SN12C renal and in the test on SW-620 colon was more than 100 µM throughout.

Regarding `CCOC(=O)/C=C/C1=C(c2cccs2)c2ccccc2CC1`, the GI50 with ACHN renal was 17.1 µM; with HCT-15 colon, 16.5 µM; in the test on HL-60(TB) leukemia, 45 µM; with KM12 colon it was 25.6 µM; with M14 melanoma, 32 µM; in the test on NCI-H460 lung it was 31.1 µM. For the same compound, the GI50 in the test with OVCAR-5 ovarian was 35.9 µM; with SK-MEL-28 melanoma it was 26.3 µM; in the test with SN12C renal it was 28.3 µM; in the test with SW-620 colon, 31.1 µM. Further, the TGI in the test with ACHN renal was 34.5 µM; with HCT-15 colon, 34 µM; in the test with HL-60(TB) leukemia, more than 100 µM; in the test on KM12 colon, 90 µM; in the test on M14 melanoma, more than 100 µM; in the test on NCI-H460 lung it was more than 100 µM. Also, the TGI in the test on OVCAR-5 ovarian is more than 100 µM; in the test on SK-MEL-28 melanoma, 75 µM; with SN12C renal it was more than 100 µM; with SW-620 colon it was more than 100 µM.

With `COc1ccc(-c2oc3c(OC)c(OC)c(OC)c(OC)c3c(=O)c2OC)cc1OC`, the total growth inhibition concentration (TGI) was more than 100 µM in the test on ACHN renal; more than 100 µM in the test with HCT-15 colon; 46.7 µM in the test with HL-60(TB) leukemia; more than 100 µM in the test with KM12 colon; more than 100 µM with M14 melanoma; 57 µM in the test on NCI-H460 lung. For the same compound, the TGI in the test on OVCAR-5 ovarian, with SK-MEL-28 melanoma, in the test on SN12C renal and with SW-620 colon was more than 100 µM throughout.

Take `COC1OC(CO)C(O)C1N` (stereo not given): the TGI with ACHN renal, in the test on HCT-15 colon, in the test with HL-60(TB) leukemia, in the test on KM12 colon, with M14 melanoma and in the test on NCI-H460 lung was more than 100 µM each time. In addition, the TGI with OVCAR-5 ovarian, with SK-MEL-28 melanoma, with SN12C renal and in the test with SW-620 colon was more than 100 µM in each case.

On to `CCn1c(-c2nonc2N)nc2c(C#CC(C)(C)O)nc(OCCNC)cc21`, for which the GI50 was 8.29 µM with ACHN renal; 9.67 µM with HCT-15 colon; 7.78 µM with HL-60(TB) leukemia; 5.82 µM in the test on KM12 colon; 8.15 µM with M14 melanoma; 7.83 µM with NCI-H460 lung. For the same compound, the GI50 was 7.99 µM in the test on OVCAR-5 ovarian, 8.49 µM with SK-MEL-28 melanoma, 7.84 µM in the test on SN12C renal and 6.68 µM in the test on SW-620 colon. In addition, the TGI was more than 25 µM in the test with ACHN renal; more than 25 µM with HCT-15 colon; 18.2 µM in the test with HL-60(TB) leukemia; 23.3 µM in the test with KM12 colon; 22.6 µM in the test on M14 melanoma; more than 25 µM in the test on NCI-H460 lung. The TGI was 24.9 µM with OVCAR-5 ovarian, more than 25 µM in the test on SK-MEL-28 melanoma, more than 25 µM in the test on SN12C renal and more than 25 µM in the test with SW-620 colon.

As to `CC[PH+](CC)CC.O=COC1OC([S-])C(OC=O)C(OC=O)C1OC=O.[Au+]` (stereo not given), the GI50 in the test with ACHN renal is 1.78 µM; in the test on HCT-15 colon it was 1.14 µM; in the test with HL-60(TB) leukemia it was 2.6 µM; in the test with KM12 colon, 1.61 µM; in the test on M14 melanoma it was 1.15 µM; in the test with NCI-H460 lung it was 1.71 µM. The GI50 in the test with OVCAR-5 ovarian is 1.89 µM; with SK-MEL-28 melanoma, 0.907 µM; with SN12C renal it was 1.44 µM; with SW-620 colon, 1.85 µM. For the same compound, the TGI is 3.16 µM in the test with ACHN renal; 2.56 µM with HCT-15 colon; 6.6 µM in the test on HL-60(TB) leukemia; 3.19 µM in the test with KM12 colon; 2.81 µM in the test on M14 melanoma; 3.69 µM in the test with NCI-H460 lung. In addition, the TGI stood at 3.53 µM in the test on OVCAR-5 ovarian, 2.15 µM in the test on SK-MEL-28 melanoma, 2.75 µM in the test on SN12C renal and 3.83 µM with SW-620 colon.
